Results taken from patent publication US11058781B2, “Diazacarbazole derivatives as tau-PET-ligands” (Hoffmann-La Roche Inc., priority 2013, dated 2021).

Legend:
native tau aggregates = experiment: TAU radioligand in-vitro displacement assay ([3H]T808 autoradiography on AD brain sections); type: binding; settings: human AD brain sections; radioligand [3H]T808 10 nM; 50 mM Tris pH 7.4, room temperature, 30 min
Method: This in vitro binding assay assesses the affinity of compounds for native tau aggregates. The compounds are co-incubated with the well-established tau specific radioligand [^3H]T808 and the compound's displacement potency of [^3H]T808 binding is determined by in vitro autoradiography using human Alzheimer's disease (AD) brain sections (see FIG. 2).
AD human brains are purchased from Banner Sun Health Research Institute (Sun City, Ariz., USA). Pathological diagnosis of AD is made according to standard NIA-Reagan Institute criteria based on neuropathological data. The radioligand [^3H]T808 was synthesized in-house ([^3H]-2-[4-(2-Fluoro-ethyl)-piperidin-1-yl]-benzo[4,5]imidazo[1,2-a]pyrimidine, radiochemical purity 99.0%). […] For the autoradiography FujiFilm Imaging Plates (BAS-IP TR 2025) are exposed to the sections and read with a FujiFilm IP reader (BAS-5000). […]
The signal intensity (Dens−PSL/mm2) in the region of interest (ROI) of the autoradiogram is quantified with the software MCID analysis (version 7.0, Imaging Research Inc.). The specific binding (SB) of [^3H]T808 binding in absence or in presence of a compound is calculated by subtracting the non-specific binding signal in the white matter, thus yielding SB[3H]T808 only and SBcompound. The % displacement by the various compounds is calculated as following: % displacement=100−(SBcompound/SB[3H]T808 only)*100. […]

tau aggregates = experiment: Autoradiogram of the tritiated radioligand on a human cortical brain section (Braak V AD patient); type: binding; settings: radioligand concentration 3.2 nM, Braak V staged AD patient
Method: FIG. 1: Autoradiogram of ^3H-2-(6-fluoro-pyridin-3-yl)-9H-dipyrido[2,3-b;3′,4′-d]pyrrole.
Autoradiogram of ^3H-2-(6-fluoro-pyridin-3-yl)-9H-dipyrido[2,3-b;3′,4′-d]pyrrole incubated with a human cortical brain section obtained from a Braak V staged AD patient. The radioligand concentration was 3.2 nM.

Sequence of tau aggregates (P10636 623-708 limits assumed): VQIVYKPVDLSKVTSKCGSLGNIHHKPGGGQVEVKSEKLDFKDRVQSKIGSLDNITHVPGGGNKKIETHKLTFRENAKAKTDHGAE

Row | % displacement of [^3H]T808 (10 nM) (native tau aggregates) [%] | Molecule | staining pattern in autoradiogram (tau aggregates)
1 | 43 | Fc1ccc(-c2ccc3c(n2)[nH]c2ccncc23)cn1 [Example 1, 2-(6-Fluoro-pyridin-3-yl)-9H-dipyrido[2,3-b;3′,4′-d]pyrrole] | –
2 | – | ^3H-2-(6-Fluoro-pyridin-3-yl)-9H-dipyrido[2,3-b;3′,4′-d]pyrrole [Example 2] | punctate staining of tau aggregates in a layered distribution pattern
